Reference: patent publication US12564585B2, “Nutraceuticals having sustained release for improved bioavailability and method of production” (BioActives LLC, priority 2013, dated 2026)

Legend:
[1] = Curcumin-SR dissolution test (SGF then SIF); type: physicochemical; details: simulated gastric and intestinal fluids
Protocol: The in vitro dissolution study was performed using the Varian 7020 dissolution tester with the basket configuration at 37° C., 100 rpm. The samples equivalent to 25 mg Curcumin filled in hard gelatin capsules were used for the study. The capsules were introduced into 750 ml of 0.1N HCl (simulated gastric fluid without enzymes, SGF) maintained at 37° C. At the end of 1 and 2 hrs, 3 ml of the sample was withdrawn and filtered through 10μ-syringe filter. The removed volume was replaced each time with fresh medium. At the end of 2 hr, the pH of the medium was adjusted to 6.5 (simulated intestinal fluid without enzymes, SIF) with 195 ml of 0.2M tribasic sodium phosphate solution equilibrated to 37° C. Polysorbate 80 dissolved in 55 ml of water was added to a concentration of 0.25% to simulate intestinal fluid. Aliquots were withdrawn at 4, 6, 9, and 12 hrs for analysis, as described before, and the removed volume was replaced with fresh medium each time. The aliquots were diluted with methanol for the HPLC analysis of Curcumin. Curcumin was quantified using reverse-phase HPLC on a Phenomenex Luna column (150×4.6 mm, 5 μm) at room temperature. The samples were eluted using an isocratic mobile phase consisting of 5% acetic acid/45% and acetronitrile/55%. The flow rate was 1 ml/min and detection wavelength was 420 nm. Standard Curcumin from Chromadex was used for quantification. […]

[2] = Curcumin-SR bioavailability pilot human uptake study; type: in vivo; details: plasma Curcumin, 250 mg total Curcuminoids oral, 0-9 hr
Protocol: (§1) Curcumin-SR formulation and Curcumin powder equivalent to 250 mg total Curcuminoids were used for the study. The samples were provided in hard gelatin capsules. The crossover study was done using two healthy subjects who were not using curcumin in their food preparations or consuming Curcumin supplements. On the day of the study, 7 ml of blood was collected in EDTA tubes to permit establishment of baseline value. Curcumin-SR capsules were administered after breakfast and blood samples were drawn as before at 1, 2, 4, 7, and 9 hrs post-dose. The samples were stored on ice protected from light and the plasma was separated by centrifugation within 1 hr of collection and stored at −70° C. until analysis. After a 7-day washout period the protocol was repeated for the control Curcumin powder capsules.
Hydrolysis of Curcumin conjugates and extraction of Curcumin from the plasma were done based on the method described by Vareed et at. (Pharamcokinetics of curcumin conjugate metabolites in healthy human subjects, Cancer Epidemiol Biomarkers, 17: 1411-1417, 2008). One ml of the plasma was incubated with 2000 units of β-glucuronidase and 260 units sulfatase at 37° C. for 3.5 hrs. The samples were extracted three times with ethyl acetate/methanol (95:5) and the solvents were evaporated under nitrogen protected from light. […] Curcumin was quantified using reverse-phase HPLC as described above.

[3] = Resveratrol-SR bioavailability pilot human uptake study; type: in vivo; details: plasma free Resveratrol, 500 mg oral, 0-24 hr
Protocol: Resveratrol-SR formulation and 98% Resveratrol powder equivalent to 500 mg Resveratrol were used for the study. The samples were provided in hard gelatin capsules. The crossover study was done using two healthy subjects who were not consuming Resveratrol supplements. The subjects were asked not to consume Resveratrol containing foods, such as, peanuts grapes and wine, for 48 hours before the study. On the day of the study, 7 ml of blood was collected in EDTA tubes to permit establishment of baseline value. Resveratrol-SR capsules were administered after breakfast and blood samples were drawn as before at 1, 2, 4, 7, 9, and 24 his post-dose. The samples were stored on ice protected from light and the plasma was separated by centrifugation within 1 hr of collection and stored at −70° C. until analysis. After a 7-day washout period the protocol was repeated for the control Resveratrol powder capsules. Plasma total Resveratrol (Resveratrol conjugates and free Resveratrol) and free Resveratrol were determined based on the method described by Meng et al. (Urinary and plasma levels of resveratrol and quercetin in humans, mice and rats after ingestion of pure compounds and grape juice, J. Agric. Food Chem., 52: 935-942, 2004). […] Resveratrol was quantified using reverse-phase HPLC as described above.

[4] = Resveratrol-SR dissolution test (SGF then SIF); type: physicochemical; details: sink conditions, SGF 2 hr then SIF pH 6.5, 25 mg Resveratrol
Protocol: The in vitro dissolution study was performed using the Varian 7020 dissolution tester with the basket configuration at 37° C., 100 rpm. The samples equivalent to 25 mg Resveratrol filled in hard gelatin capsules were used for the study. The capsules were introduced into 750 ml of 0.1N HCl (simulated gastric fluid without enzymes, SGF) maintained at 37° C. […] The removed volume was replaced each time with fresh medium. […] Polysorbate 80 dissolved in 55 ml of water was added to a concentration of 0.25% to simulate intestinal fluid. Aliquots were withdrawn at 4, 6, 9, and 12 hrs for analysis as described before and the removed volume was replaced with fresh medium each time. The aliquots were diluted with methanol for HPLC analysis. Resveratrol was quantified using reverse-phase HPLC on a Phenomenex Prodigy column (250×4.6 mm, 5 μm) at room temperature. The samples were eluted using an isocratic mobile phase consisting of 5% acetic acid/55% and methaniol/45%. The flow rate was 1 ml/min and detection wavelength was 306 nm. The retention time for Resveratrol was 7.5 min under these conditions. Standard Resveratrol from Sigma was used for calibration.

[5] = PQQ-SR bioavailability pilot human uptake study; type: in vivo; details: free plasma PQQ
Protocol: as §1, with “PQQ-SR” for “Curcumin-SR”, “PQQ” for “Curcumin”, “40” for “250”, “PQQ” for “total Curcuminoids”, “subjects.” for “subjects who were not using curcumin in their food preparations or consuming Curcumin supplements.”
Plasma PQQ was extracted using n-butanol and HCl followed by SepPak C-18 clean up of the extract as described by Suzuki et al. (Extractions of pyrroloquinoline quinone from crude biological samples, Suzuki, O., et al., Life Sci., 47: 2135-41, 1990). PQQ was estimated by using the enzymatic method as described by Geiger and Gorisch (Enzymatic determination of pyrroloquinoline quinone using crude membranes from E. coli, Geiger, O. and Gorisch, H., Anal Biochem., 164: 418-23, 1987). The method measures only the free PQQ in the plasma.

[6] = PQQ-SR dissolution test (SGF then SIF); type: physicochemical; details: SGF 2 hr then SIF pH 6.5, 20 mg PQQ
Protocol: The in vitro dissolution study was performed using the Varian 7020 dissolution tester with the basket configuration at 37° C., 100 rpm. The samples equivalent to 20 mg PQQ filled in hard gelatin capsules were used for the study. The capsules were introduced into 750 ml of 0.1N HCl (simulated gastric fluid without enzymes, SGF) maintained at 37° C. At the end of 1 and 2 hrs, 2 ml of the sample was withdrawn and filtered through 10μ-syringe filter. The removed volume was replaced each time with fresh medium. PQQ was determined by spectrophotometry at 330 nm.
At the end of 2 hr, the pH of the medium was adjusted to 6.5 (Simulated intestinal fluid without enzymes, SIF) with an appropriate amount of 0.2M tribasic sodium phosphate solution equilibrated to 37° C., Polysorbate 80 at 0.25% (simulating fed state) dissolved in water was added to the medium. Aliquots were withdrawn at 4, 6, 9, and 12 hrs for analysis as described before and the removed volume was replaced with fresh medium each time.

[7] = human studies, background; cited from earlier work

For COc1cc(/C=C/C(=O)CC(=O)/C=C/c2ccc(O)c(OC)c2)ccc1O [Curcumin powder, Curcumin], the “dissolution profile in words” value [1] was “very little is micronized or released at the gastric pH” and the “average area under the curve AUC0-9hr” value [2] was 47.78 ng·h/mL.

For Oc1ccc(/C=C/c2cc(O)cc(O)c2)cc1 [Resveratrol powder, 3,4′,5-trihydroxy-trans-stilbene], the “average area under the curve AUC0-24hr for free Resveratrol” value [3] was 2290 ng·h/mL and the “dissolution of dose in 4 hours” value [4] was 100%.

For O=C(O)c1cc(C(=O)O)c2c(n1)C(=O)C(=O)c1cc(C(=O)O)[nH]c1-2 [control PQQ powder, Pyrroloquinoline quinone], the “time by which plasma level reached near baseline” value [5] was ≤ 9 h, the “average area under the curve AUC0-9hr” value ([5]; 40 mg oral, 0-9 hr) was 31.41 ng·h/mL and the Tmax ([5]; human, 40 mg PQQ oral, two healthy subjects) was 2 h. For the same compound, the “dose in solution by 4 hrs” value [6] was 100%, the “time after ingestion at which maximum plasma level was reached” value [7] was 2 h and the “time by which levels reached baseline” value [7] was ≤ 8 h.
